Measured values as given in PubChem BioAssay (NCI).
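Tested at 5 concentrations; 48 h exposure; 96-well plates; endpoints linearly interpolated, else capped at highest concentration. TGI: total growth inhibition.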

Key:
Experiment in all cases: NCI-60 cell line screen, 48 h
[1] = system: U251 CNS
[2] = system: OVCAR-4 ovarian
[3] = system: BT-549 breast
[4] = system: SR leukemia
[5] = system: RPMI-8226 leukemia
[6] = system: HOP-92 NSCLC
[7] = system: NCI/ADR-RES ovarian
[8] = system: MDA-MB-231 breast
[9] = system: K-562 leukemia
[10] = system: HCT-15 colon
[11] = system: CCRF-CEM leukemia
[12] = system: UO-31 renal
[13] = system: M14 melanoma
[14] = system: SN12C renal
[15] = system: MALME-3M melanoma
[16] = system: UACC-257 melanoma
[17] = system: ACHN renal
[18] = system: LOX IMVI melanoma
[19] = system: SK-MEL-2 melanoma
[20] = system: CAKI-1 renal
[21] = system: OVCAR-8 ovarian
[22] = system: HT29 colon
[23] = system: A549 NSCLC
[24] = system: MOLT-4 leukemia
[25] = system: HL-60(TB) leukemia
[26] = system: PC-3 prostate
[27] = system: HOP-62 NSCLC
[28] = system: DU-145 prostate
[29] = system: EKVX NSCLC
[30] = system: TK-10 renal
[31] = system: KM12 colon
[32] = system: HCC-2998 colon
[33] = system: MCF7 breast
[34] = system: NCI-H23 lung
[35] = system: SNB-19 CNS
[36] = system: MDA-N
[37] = system: OVCAR-5 ovarian
[38] = system: SK-MEL-28 melanoma
[39] = system: SF-295 CNS
[40] = system: SK-MEL-5 melanoma
[41] = system: MDA-MB-435
[42] = system: NCI-H460 lung
[43] = system: OVCAR-3 ovarian
[44] = system: HCT-116 colon
[45] = system: COLO 205 colon
[46] = system: 786-0 renal
[47] = system: SF-268 CNS
[48] = system: NCI-H522 lung
[49] = system: SK-OV-3 ovarian
[50] = system: T-47D breast
[51] = system: SF-539 CNS
[52] = system: UACC-62 melanoma
[53] = system: A498 renal
[54] = system: NCI-H226 lung
[55] = system: IGROV1 ovarian
[56] = system: RXF 393 renal
[57] = system: SW-620 colon
[58] = system: SNB-75 CNS

Measured: TGI

CCCCCCNc1n[nH]c(=O)c2c1nnn2Cc1ccccc1
> 100 µM: [1] | [2] | [3] | [4] | [5] | [6] | [7] | [8] | [9] | [10] | [11] | [12] | [13] | [14] | [15] | [16] | [17] | [18] | [19] | [20] | [21] | [22] | [23] | [24] | [25] | [26] | [27] | [28] | [29] | [30] | [31] | [32] | [33] | [34] | [35] | [36] | [37] | [38] | [39] | [40] | [41] | [42] | [43] | [44] | [45] | [46]

Cn1c(=O)c2c(ncn2CCNC(CO)C(O)c2ccc([N+](=O)[O-])cc2)n(C)c1=O (stereo unspecified)
> 100 µM: [1] | [2] | [3] | [47] | [4] | [5] | [6] | [7] | [8] | [48] | [49] | [9] | [10] | [50] | [11] | [12] | [13] | [14] | [15] | [16] | [17] | [18] | [51] | [19] | [20] | [21] | [22] | [23] | [24] | [25] | [26] | [27] | [29] | [52] | [30] | [31] | [33] | [34] | [35] | [36] | [38] | [39] | [40] | [53] | [41] | [42] | [43] | [44] | [45] | [46] | [54]

O=CCC1CCCCC1
> 100 µM: [55] | [2] | [3] | [47] | [5] | [6] | [7] | [8] | [48] | [49] | [9] | [10] | [50] | [12] | [13] | [14] | [56] | [15] | [16] | [17] | [18] | [51] | [19] | [57] | [20] | [23] | [24] | [26] | [27] | [58] | [29] | [31] | [34] | [35] | [36] | [37] | [38] | [39] | [40] | [53] | [41] | [42] | [43] | [44] | [45] | [46] | [54]

N=C(N)C1CN(CCc2c[nH]c3ccccc23)C(=O)NC1=O (stereo unspecified)
> 100 µM: [55] | [1] | [2] | [3] | [47] | [4] | [5] | [6] | [7] | [8] | [49] | [9] | [10] | [50] | [11] | [12] | [13] | [14] | [15] | [16] | [17] | [18] | [57] | [21] | [22] | [23] | [24] | [25] | [26] | [27] | [28] | [58] | [29] | [52] | [30] | [32] | [33] | [34] | [35] | [36] | [37] | [38] | [39] | [40] | [53] | [41] | [42] | [43] | [44] | [45] | [46] | [54]
